Here are results for three compounds from patent US20240327406A1, “POTASSIUM CHANNEL MODULATORS” (Autifony Therapeutics Limited, priority 2021, published 2024).

The nature of the data set: Determination of blood and brain tissue binding (equilibrium dialysis). The class given is in vitro ADME, Sprague Dawley rat. To be noted: Sprague Dawley, 5 h at 37° C.; for fraction unbound at 5 h, 5 micromolar: 1:2 (w/v) in artificial CSF, rat brain homogenate, read-out: % FU Brain; for fraction unbound at 5 h, 0.5 micromolar: whole blood diluted 1:1 (v/v) with isotonic phosphate buffer, rat whole blood, read-out: % FU Blood. As to the method:
Sprague Dawley rat whole blood, collected on the week of the experiment using K3-EDTA as an anti-coagulant, is diluted with isotonic phosphate buffer 1:1 (v/v). Sprague Dawley rat whole brain, stored frozen at −20° C., is thawed and homogenised in artificial cerebrospinal fluid (CSF) 1:2 (w/v).
An appropriate amount of test compound is dissolved in DMSO to give a 10 millimolar solution. Further dilutions, to obtain a 166.7 micromolar working solution are then prepared using 50% acetonitrile in MilliQ water. This working solution is used to spike the blood to obtain a final concentration of 0.5 micromolar in whole blood. Similarly, the working solution is used to spike brain samples to obtain a final concentration of 5 micromolar in whole brain. From these spiked blood and brain preparations, control samples (n=3), are immediately extracted and used to calculate the initial recovery of the test items.
150 microL of compound-free buffer (isotonic phosphate buffer for blood or artificial CSF buffer for brain) is dispensed in one half-well and 150 microL of spiked matrix (blood or brain) is loaded in the other half-well, with the two halves separated by a semi-permeable membrane. After an equilibration period of 5 h at 37° C., 50 microL of dialysed matrix (blood or brain) is added to 50 microL of corresponding compound-free buffer, and vice-versa for buffer, such that the volume of buffer to matrix (blood or brain) remains the same. Samples are then extracted by protein precipitation with 300 microL of acetonitrile containing rolipram (control for positive ionization mode) or diclofenac (control for negative ionization mode) as internal standards and centrifuged for 10 min at 3000 rpm. Supernatants are collected (100 microL), diluted with 27% AcN in MilliQ water (200 microL) and then injected into an HPLC-MS/MS or UPLC-MS/MS system to determine the concentration of test compound present.
Blood and brain tissue binding are then determined using the following formulas:
where Afu=apparent fraction unbound; Buffer=analyte/internal standard ratio determined in the buffer compartment; Blood=analyte/internal standard ratio determined in the blood compartment; Brain=analyte/internal standard ratio determined in the brain compartment.
where: fucr=Fraction unbound corrected; D=matrix dilution factor (D=2 for blood and D=3 for brain). then: […]

On to `Cc1ccc(Oc2ccc(-n3c(=O)[nH]c4cccnc43)cn2)cc1OC(F)(F)F` [Example 4, 3-[6-[4-methyl-3-(trifluoromethoxy)phenoxy]-3-pyridyl]-1H-imidazo[4,5-b]pyridin-2-one], for which the fraction unbound at 5 h, 5 micromolar came to 0.003 and the fraction unbound at 5 h, 0.5 micromolar was 0.002.
In the same order, the values of `O=c1[nH]c2cccnc2n1-c1cnc(Oc2cccc(OC(F)(F)F)c2)nc1` [Example 17, 3-[2-[3-(trifluoromethoxy)phenoxy]pyrimidin-5-yl]-1H-imidazo[4,5-b]pyridin-2-one] are 0.016 and 0.016.
For `Cc1ccc(Oc2ncc(-n3c(=O)[nH]c4cccnc43)cn2)cc1OC(F)(F)F` [Example 32, 3-[2-[4-methyl-3-(trifluoromethoxy)phenoxy]pyrimidin-5-yl]-1H-imidazo[4,5-b]pyridin-2-one], the fraction unbound at 5 h, 5 micromolar came to 0.006 and the fraction unbound at 5 h, 0.5 micromolar came out at 0.01.
